# pIC50: −log10 of the molar value. Structures can show the parent of a compound that is named as a salt.
# Columns and labels:
# 15PGDH [1] = target: T1, 15PGDH (Homo sapiens, UniProt P15428); test: Specific inhibitory effectiveness for 15PGDH on a cell model (PGF2 secreted by PMA/LPS-treated U937); assay type: cell-based; set-up: endogenous in cells; host or cells: U937 (ATCC CRL-1593), PMA-differentiated, LPS-stimulated; settings: 5 μM test molecule, 10 ng LPS, 6 h at 37° C., immuno-enzymatic assay
# T1 sequence (P15428 1-266): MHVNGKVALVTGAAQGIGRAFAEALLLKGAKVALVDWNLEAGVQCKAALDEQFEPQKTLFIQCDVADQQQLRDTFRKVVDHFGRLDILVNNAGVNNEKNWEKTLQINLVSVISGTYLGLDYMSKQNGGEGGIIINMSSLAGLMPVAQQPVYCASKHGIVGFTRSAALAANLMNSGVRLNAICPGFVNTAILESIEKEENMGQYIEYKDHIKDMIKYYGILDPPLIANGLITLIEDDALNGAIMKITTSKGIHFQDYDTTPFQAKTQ
# Method: The present study is targeted at evaluating the compounds of formula (I) in a cell model. This study makes it possible to determine the penetration of the active principle into the cytosol and its effectiveness as specific inhibitor of 15-PGDH under more complex experimental conditions than a simple reaction medium.
# D-2. Culturing of U937 (CRL-1593 American Type Cells Collection) in RPMI medium 1640+10% of foetal calf serum+2 mM of L-glutamine+antibiotics at 37° C. under 5% of CO2.
# D-1. Preparation of a suspension of U937 (1×10^6 cells/ml) in RPMI medium 1640+10% of foetal calf serum+2 mM of glutamine+antibiotics+10 nM of PMA (phorbol 12-myristate 13-acetate); introduction of 200 μl per test well of this suspension into a 96-well plate (3 wells per molecule and per concentration to be tested+corresponding controls); incubation at 37° C. for 36 h 00 under 5% CO2.
# D0. Removal of the supernatants (the cells have adhered to the bottom of the wells: monitoring using a microscope) and introduction into each well of 100 μl of RPMI 1640+2 mM of L-glutamine+10 ng of LipoPolySaccharide (LPS) (except absolute control)+the test molecule at the desired concentration (in this instance, 5 and 25 μM).
# Incubation at 37° C. for 6 h 00 under 5% of CO2.
# The mother solutions of test molecules are at 25 mM in DiMethyl SulfOxide.
# All the wells comprise the same final amount of DMSO. […]
# 15PGDH [2] = target: T1, 15PGDH; test: Test on 15-PGDH (spectrophotometric, 340 nm, PGE2/β-NAD); assay type: biochemical; set-up: made in house
# Method: The enzyme 15-PGDH is obtained as disclosed in Application FR-A-02/05067, filed on behalf of L'Oréal, in suspension in a suitable medium at a concentration of 0.3 mg/ml, then blocked at −80° C. For the requirements of the test, this suspension is defrosted and stored in ice.
# Furthermore, a Tris 100 mM, pH=7.4, buffer comprising 0.1 mM of dithiothreitol (D5545, Sigma-Aldrich, L'isle D'Abeau Chesne, BP 701, 38297, Saint Quentin Fallavier), 1.5 mM of β-NAD (N6522, Sigma-Aldrich, L'isle D'Abeau Chesne, BP 701, 38297, Saint Quentin Fallavier) and 50 μM of prostaglandin E2 (P4172, Sigma-Aldrich, L'isle D'Abeau Chesne, BP 701, 38297, Saint Quentin Fallavier) is prepared.
# (§1) 0.965 ml of this buffer (brought beforehand to 37° C.) is introduced into the cell of a spectrophotometer (Perkin-Elmer, Lambda 2) thermostatically controlled at 37° C., the wavelength of which for the measurement is adjusted to 340 nm. 0.035 ml of enzymatic suspension at 37° C. is introduced into the cell concomitantly with the recording (corresponding to an increase in optical density at 340 nm). The maximum rate of reaction is noted.
# The test values (comprising the compounds (I)) are compared with the control value (without compound (I)); the results indicated represent the concentration at which the compound (I) inhibits 50% of the enzymatic activity of 15-PGDH, referred to as IC50dh.
# PGF synthase = target: T2, PGF synthase (Homo sapiens, UniProt P42330); test: Test on PGFS (spectrophotometric, 340 nm, 9,10-phenanthrenequinone/β-NADPH); assay type: biochemical; settings: Tris 100 mM pH 6.5, 37° C., 20 μM 9,10-phenanthrenequinone, 100 μM β-NADPH; read-out: Inhibition of PGFS IC50fs
# T2 construct: made in house
# T2 sequence (P42330 1-323): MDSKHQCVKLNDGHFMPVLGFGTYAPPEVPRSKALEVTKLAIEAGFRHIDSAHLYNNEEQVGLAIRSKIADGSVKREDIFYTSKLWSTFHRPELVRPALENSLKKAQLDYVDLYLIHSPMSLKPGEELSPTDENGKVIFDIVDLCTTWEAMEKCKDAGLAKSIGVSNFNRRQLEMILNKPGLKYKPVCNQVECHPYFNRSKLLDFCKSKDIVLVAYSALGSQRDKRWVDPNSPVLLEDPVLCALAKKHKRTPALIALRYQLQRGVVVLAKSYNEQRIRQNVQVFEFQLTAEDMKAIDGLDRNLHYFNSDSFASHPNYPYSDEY
# Method: The enzyme PGF synthase is obtained as disclosed in the document FR-A-02/05067, at a concentration of 0.5 mg/ml, in suspension in an appropriate medium, and is blocked at −80° C. For the requirements of the test, this suspension is defrosted and stored in ice.
# Furthermore, a Tris 100 mM, pH=6.5, buffer comprising 20 μM of 9,10-phenanthrenequinone* (P2896, Sigma-Aldrich, L'isle D'Abeau Chesne, BP 701, 38297, Saint Quentin Fallavier) and 100 μM of β-NADPH(N1630, Sigma-Aldrich, L'isle D'Abeau Chesne, BP 701, 38297, Saint Quentin Fallavier) is prepared in a brown bottle (exclusion of light).
# * A mother solution assaying 1 mM is prepared in absolute ethanol and is brought to 40° C.; the bottle is placed in an ultrasonic bath to facilitate the dissolution of the product.
# as §1, with “0.950” for “0.965”, “0.05” for “0.035”, “a fall” for “an increase”, “noted. […]” for “noted.”
"amount of PGF2 secreted by the cells, % of the LPS control (15PGDH [1])","pIC50 (15PGDH [2]; Tris 100 mM pH 7.4, 37° C., 50 μM prostaglandin E2, 1.5 mM β-NAD, read-out: Inhibition of 15-PGDH IC50dh)",ratio IC50fs/IC50dh (15PGDH [2]; selectivity for 15-PGDH with respect to PGFS),pIC50 (PGF synthase),Structure (SMILES)
+44 ± 16%,,,,"O=C1N=C(O)/C(=C/c2ccc(-c3ccc(C(=O)O)cc3)o2)S1 [Compound 8, Disodium salt of 4-{5-[(2,4-disulpho-1,3-thiazolidin-5-ylidene)methyl]-2-furyl}benzoic acid (isomer Z)]"
+76 ± 20%,6.52,greater than 13,5.40,"O=C1NC(=O)C(=Cc2ccc(-c3ccc(C(=O)O)cc3)o2)S1 [Compound 1, 4-{5-[(2,4-Dioxo-1,3-thiazolidin-5-ylidene)methyl]-2-furyl}benzoic acid]"

# From patent US7294641B2, “Heterocyclic compound for stimulating or inducing the growth of the hair or eyelashes and/or slowing down their loss, composition comprising it and its uses” (L'Oreal, priority 2002, dated 2007)
